# Values quoted from earlier work in patent US20200215024A1, “CANNABINOID FORMULATIONS FOR TREATING ALCOHOL HANGOVER” (Replennabis LLC, priority 2019, published 2020).
# Conditions: in vivo
smiles,measurement,value
"CCCCCc1cc(O)c2c(c1)OC(C)(C)[C@@H]1CCC(C)=C[C@@H]21 [THC, tetrahydrocannabinol]",oral bioavailability,less than 8%
